Measured values as given in patent publication US20240025863A1, “SOS1 PROTEIN DEGRADERS, PHARMACEUTICAL COMPOSITIONS THEREOF, AND THEIR THERAPEUTIC APPLICATIONS” (BioTheryX, Inc., priority 2020, published 2024).
Where two headings read alike, the source gives them in different places.

How the values were obtained:
Assay type in all cases: cell-based
Lovo cells (G13D) = assay: Cell viability assay (CellTiter-Glo), Lovo cells; conditions: Homo sapiens, 72 h, read-out: Inhibition of Cancerous Cells IC50 Lovo (G13D)
Method in brief: (§1)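 Cells were plated in their growth medium (RPMI 1640 for H358 and SW48, DMEM for Lovo and SW480) with 2.5% FBS, then exposed to compound or DMSO for 3 days at 37 °C, 5% CO2. Viability was read as CellTiter-Glo luminescence after 10 min shaking.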

SW48 cells (wt) = assay: Cell viability assay (CellTiter-Glo), SW48 cells; conditions: Homo sapiens, read-out: Inhibition of Cancerous Cells IC50 SW48 (wt)
Method in brief: as §1

H358 cells (G12C) = assay: Cell viability assay (CellTiter-Glo), H358 cells; conditions: Homo sapiens, NCI-H358, 72 h, read-out: Inhibition of Cancerous Cells IC50 H358 (G12C)
Method in brief: as §1

SW480 cells (G12V) = assay: Cell viability assay (CellTiter-Glo), SW480 cells; conditions: Homo sapiens, read-out: Inhibition of Cancerous Cells IC50 SW480 (G12V)
Method in brief: as §1

H23 cells = assay: Cell viability assay (CellTiter-Glo), H23 cells; conditions: Homo sapiens, NCI-H23, 72 h, read-out: Inhibition of Cancerous Cells IC50 H23
Description: H358, H23, SW48, and AsPC-1 cells were cultured in RPMI 1640 media supplemented with 10% fetal bovine serum, streptomycin, and penicillin. Lovo and SW480 cells were cultured in DMEM media supplemented with 10% fetal bovine serum, streptomycin, and penicillin. The cell lines were plated in their respective medium supplemented with 2.5% fetal bovine serum, streptomycin, and penicillin. All cell lines were plated in white walled 96-well plates at 2,000 cells/well or 384-well plates at 500 cells/well, except Lovo, which were plated at 4,000 or 1,000 cells/well, respectively. The cells were incubated in DMSO (control) or a compound for 3 days at 37° C. under 5% CO2. A CELLTITER-GLO® reagent (100 μL) was then added to each well. After a 10 min incubation with shaking, luminescence was measured using an ENVISION® multimode plate reader.

Molm-13 cells = assay: Inhibition of Molm-13 cells; conditions: Homo sapiens; for inhibition at 1 µM: compound 1 μM, read-out: Inhibition of Molm-13 Cells, percentage of inhibition at 1 μM; for inhibition at 10 µM: compound 10 μM, read-out: Inhibition of Molm-13 Cells, percentage of inhibition at 10 μM
[1] = Lovo cells, 3 days incubation, CellTiter-Glo luminescence
[2] = 72 h, SW48 cells, 3 days incubation, CellTiter-Glo luminescence
[3] = H358 cells, 3 days incubation, CellTiter-Glo luminescence
[4] = 72 h, SW480 cells, 3 days incubation, CellTiter-Glo luminescence
[5] = H23 cells, 3 days incubation, CellTiter-Glo luminescence

Structure (SMILES) | IC50 (H358 cells (G12C); [3]) [nM] | IC50 (H23 cells; [5]) [nM] | other results
CCOc1cc(C(C)(C)C)ccc1C1=N[C@@](C)(c2ccc(Cl)cc2)[C@@](C)(c2ccc(Cl)cc2)N1C(=O)N1CCN(CCC(=O)NCCCCCCCCCOc2cc3nc(C)nc(N[C@H](C)c4cccc(Br)c4)c3cc2OC)CC1 [Compound C7, N-(9-((4-(((R)-1-(3-Bromophenyl)ethyl)amino)-6-methoxy-2-methylquinazolin-7-yl)oxy)nonyl)-3-(4-((4S,5R)-2-(4-(tert-butyl)-2-ethoxyphenyl)-4,5-bis(4-chlorophenyl)-4,5-dimethyl-4,5-dihydro-1H-imidazole-1-carbonyl)piperazin-1-yl)propanamide] | > 10000 | > 10000 | IC50 (Lovo cells (G13D); [1]): 6600 nM; IC50 (SW48 cells (wt); [2]): > 10000 nM; IC50 (SW480 cells (G12V); [4]): > 10000 nM
COc1cc2c(N[C@H](C)c3cccc(Br)c3)nc(C)nc2cc1OCCCCCCCN1CCC(c2cc(F)cc3c2CN(C2CCC(=O)NC2=O)C3=O)CC1 (stereo partly drawn) [Compound A1, 3-(4-(1-(7-((4-(((R)-1-(3-bromophenyl)ethyl)amino)-6-methoxy-2-methylquinazolin-7-yl)oxy)heptyl)piperidin-4-yl)-6-fluoro-1-oxoisoindolin-2-yl)piperidine-2,6-dione] |  |  | IC50 (Lovo cells (G13D); LoVo): 940 nM; IC50 (SW48 cells (wt); SW48, 72 h): 700 nM; IC50 (H358 cells (G12C)): 2800 nM; IC50 (SW480 cells (G12V); SW480, 72 h): 580 nM; IC50 (H23 cells): 1200 nM
COc1cc2nc(C)nc(N[C@H](C)c3cccc(Br)c3)c2cc1OC [drawing 284, reference compound] | 4100 | 4800 | IC50 (Lovo cells (G13D); [1]): 2200 nM; IC50 (SW48 cells (wt); [2]): 3600 nM; IC50 (SW480 cells (G12V); [4]): 2800 nM
CNCc1ccccc1-c1csc([C@@H](C)Nc2nc(C)nc3cc(OCCCCCCCCC(=O)N[C@H](C(=O)N4C[C@H](O)C[C@H]4C(=O)NCc4ccc(-c5scnc5C)cc4)C(C)(C)C)c(OC)cc23)c1 [Compound D9, (2S,4R)-4-hydroxy-1-((S)-2-(9-((6-methoxy-2-methyl-4-(((R)-1-(4-(2-((methylamino)methyl)phenyl)thiophen-2-yl)ethyl)amino)quinazolin-7-yl)oxy)nonanamido)-3,3-dimethylbutanoyl)-N-(4-(4-methylthiazol-5-yl)benzyl)pyrrolidine-2-carboxamide] | 970 | 1000 | 
COc1cc2c(N[C@H](C)c3cccc(Br)c3)nc(C)nc2cc1OCCCN1CCC(c2cc(F)cc3c2CN(C2CCC(=O)NC2=O)C3=O)CC1 (stereo partly drawn) [Compound A10, 3-(4-(1-(3-((4-(((R)-1-(3-Bromophenyl)ethyl)amino)-6-methoxy-2-methyl-quinazolin-7-yl)oxy)propyl)piperidin-4-yl)-6-fluoro-1-oxoisoindolin-2-yl)piperidine-2,6-dione] |  |  | inhibition at 1 µM (Molm-13 cells): 22%; inhibition at 10 µM (Molm-13 cells): 99%
CCOc1cc(C(C)(C)C)ccc1C1=N[C@@](C)(c2ccc(Cl)cc2)[C@@](C)(c2ccc(Cl)cc2)N1C(=O)N1CCN(CCC(=O)NCCCCCOc2cc3nc(C)nc(N[C@H](C)c4cccc(Br)c4)c3cc2OC)CC1 [Compound C8, N-(5-((4-(((R)-1-(3-Bromophenyl)ethyl)amino)-6-methoxy-2-methylquinazolin-7-yl)oxy)pentyl)-3-(4-((4S,5R)-2-(4-(tert-butyl)-2-ethoxyphenyl)-4,5-bis(4-chlorophenyl)-4,5-dimethyl-4,5-dihydro-1H-imidazole-1-carbonyl)piperazin-1-yl)propanamide] | 2800 | > 10000 | IC50 (Lovo cells (G13D); [1]): 540 nM; IC50 (SW48 cells (wt); [2]): 1100 nM; IC50 (SW480 cells (G12V); [4]): 1400 nM
COc1cc2c(N[C@H](C)c3cccc(Br)c3)nc(C)nc2cc1OCCCCCCCCC(=O)N[C@H](C(=O)N1C[C@H](O)C[C@H]1C(=O)NCc1ccc(-c2scnc2C)cc1)C(C)(C)C [Compound D2, (2S,4R)-1-((S)-2-(9-((4-(((R)-1-(3-bromophenyl)ethyl)amino)-6-methoxy-2-methylquinazolin-7-yl)oxy)nonanamido)-3,3-dimethylbutanoyl)-4-hydroxy-N-(4-(4-methylthiazol-5-yl)benzyl)pyrrolidine-2-carboxamide] | 15000 | 13000 | 
COc1cc2c(N[C@H](C)c3cccc(Br)c3)nc(C)nc2cc1OCCCCCCCN1CCC(c2cc3c(cc2F)C(=O)N(C2CCC(=O)NC2=O)C3)CC1 (stereo partly drawn) [Compound A22, 3-(5-(1-(7-((4-(((R)-1-(3-bromophenyl)ethyl)amino)-6-methoxy-2-methylquinazolin-7-yl)oxy)heptyl)piperidin-4-yl)-6-fluoro-1-oxoisoindolin-2-yl)piperidine-2,6-dione] | 790 | 900 | 
COc1cc2nc(C)nc(N[C@H](C)c3cccc(Br)c3)c2cc1OC [drawing 287] |  |  | inhibition at 1 µM (Molm-13 cells): 17%; inhibition at 10 µM (Molm-13 cells): 91%
COc1cc2c(N[C@H](C)c3cccc(Br)c3)nc(C)nc2cc1OCCCCCCCCCN1CCC(c2cc(F)cc3c2CN(C2CCC(=O)NC2=O)C3=O)CC1 (stereo partly drawn) [Compound A12, 3-(4-(1-(9-((4-(((R)-1-(3-Bromophenyl)ethyl)amino)-6-methoxy-2-methyl-quinazolin-7-yl)oxy)nonyl)piperidin-4-yl)-6-fluoro-1-oxoisoindolin-2-yl)piperidine-2,6-dione] | 1400 | 1200 | 
COc1cc2c(N[C@H](C)c3cccc(Br)c3)nc(C)nc2cc1OC1CCN(CCCCN2CCC(c3cc(F)cc4c3CN(C3CCC(=O)NC3=O)C4=O)CC2)CC1 (stereo partly drawn) [Compound A18, 3-(4-(1-(4-(4-((4-(((R)-1-(3-Bromophenyl)ethyl)amino)-6-methoxy-2-methyl-quinazolin-7-yl)oxy)piperidin-1-yl)butyl)piperidin-4-yl)-6-fluoro-1-oxoisoindolin-2-yl)-piperidine-2,6-dione] | 3000 | 2600 | 
CNCc1ccccc1-c1csc([C@H](C)Nc2nc(C)nc3cc(OCCCCCCCCC(=O)N[C@H](C(=O)N4C[C@H](O)C[C@H]4C(=O)NCc4ccc(-c5scnc5C)cc4)C(C)(C)C)c(OC)cc23)c1 [Compound D10, (2S,4R)-4-hydroxy-1-((S)-2-(9-((6-methoxy-2-methyl-4-(((S)-1-(4-(2-((methylamino)methyl)phenyl)thiophen-2-yl)ethyl)amino)quinazolin-7-yl)oxy)nonanamido)-3,3-dimethylbutanoyl)-N-(4-(4-methylthiazol-5-yl)benzyl)pyrrolidine-2-carboxamide] | 750 | 930 | 
COc1cc2c(N[C@H](C)c3cccc(Br)c3)nc(C)nc2cc1OCCOCCOCCOCCNc1cccc2c1C(=O)N(C1CCC(=O)NC1=O)C2=O (stereo partly drawn) [Compound A4, 4-((2-(2-(2-(2-((4-(((R)-1-(3-bromophenyl)ethyl)amino)-6-methoxy-2-methylquinazolin-7-yl)oxy)ethoxy)ethoxy)ethoxy)ethyl)amino)-2-(2,6-dioxopiperidin-3-yl)isoindoline-1,3-dione] | 7200 | 9000 | 
COc1cc2c(N[C@H](C)c3cccc(Br)c3)nc(C)nc2cc1OCCCCCCCNCc1ccc(OCc2scc3c2CN(C2CCC(=O)NC2=O)C3=O)cc1 (stereo partly drawn) [Compound A41, 3-(1-((4-(((7-((4-(((R)-1-(3-Bromophenyl)ethyl)amino)-6-methoxy-2-methyl-quinazolin-7-yl)oxy)heptyl)amino)methyl)phenoxy)methyl)-4-oxo-4H-thieno[3,4-c]pyrrol-5(6H)-yl)piperidine-2,6-dione] | 1500 | 1300 | 
COc1cc2c(N[C@@H](C)c3cccs3)nc(C)nc2cc1OCCCCCCCCC(=O)N[C@H](C(=O)N1C[C@H](O)C[C@H]1C(=O)NCc1ccc(-c2scnc2C)cc1)C(C)(C)C [Compound D6, (2S,4R)-4-Hydroxy-1-((S)-2-(9-((6-methoxy-2-methyl-4-(((S)-1-(thiophen-2-yl)ethyl)amino)quinazolin-7-yl)oxy)nonanamido)-3,3-dimethylbutanoyl)-N-(4-(4-methylthiazol-5-yl)benzyl)pyrrolidine-2-carboxamide] | 6100 | 2700 | 
